Measured values as given in EPA's ToxValDB 9.5.
Several values for one entry are separate records, joined by “and”; a condition that tells them apart may be missing. Identical values can stand only once.

Test system: Rattus norvegicus
[1] = chronic, duration: 123 days, oral, gavage, F, Wistar, Heart: Heart Weight, Relative
[2] = chronic, duration: 123 days, oral, gavage, F, Wistar, Kidney: Kidney, Cortical Tubular Dilation, Multifocal + Whole Body: Body Weight Change
[3] = reproduction developmental, duration: 90 days, oral, gavage, M, Crl:WI (Han), generation: P0, P0: General Toxicity: Whole Body: Body Weight Change + P0: General Toxicity: Whole Body: Body Weight, Absolute + P0: General Toxicity: Whole…
[4] = reproduction developmental, duration: 123 days, oral, gavage, F, Crl:WI (Han), generation: P0, P0: General Toxicity: Whole Body: Body Weight Change + P0: General Toxicity: Whole Body: Body Weight, Absolute + P0: General Toxicity: Whole…
[5] = subchronic, duration: 90 days, oral, gavage, M, Wistar, Kidney: Blood Urea Nitrogen (BUN), Blood + Kidney: Kidney, Cortical Tubular Dilation, Multifocal + Whole Body: Body Weight Change
[6] = reproduction developmental, oral, gavage, F, Wistar, generation: F1, F1: body weight + F1: kidney: absolute kidney weight + F1: kidney: relative kidney weight + F1: liver: absolute liver weight + F1: liver: …
[7] = reproduction developmental, oral, gavage, F, Wistar, generation: P0, P0: body weight + P0: developmental toxicity
[8] = reproduction developmental, oral, gavage, M, Wistar, generation: F1, F1: body weight + F1: paternal toxicity
[9] = reproduction developmental, oral, gavage, M, Wistar, generation: P0, P0: body weight + P0: developmental toxicity
[10] = subchronic, duration: 13 weeks, oral, diet, F, Crl:CD(SD) BR, Blood: Hematocrit (HCT) + Blood: Mean Corpuscular Volume (MCV) + Brain: Brain Weight, Absolute + Kidney: Urea Nitrogen + Liver: Cholesterol…
[11] = subchronic, duration: 13 weeks, oral, diet, F, Crl:CD(SD) BR, Blood: Red Blood Cell (RBC) + Kidney: Kidney Weight, Relative + Liver: Hepatocellular Hypertrophy, Centrilobular + Liver: Liver Weight, …
[12] = subchronic, duration: 13 weeks, oral, diet, F, Sprague-Dawley, Endocrine: Adrenal: Adrenal Gland Weight, Absolute + Endocrine: Adrenal: Adrenal Gland Weight, Relative to Brain + Hepatic: Liver: Liver …
[13] = subchronic, duration: 13 weeks, oral, diet, F, Sprague-Dawley, Hepatic: Liver: Total Bilirubin (TBILI) + Immune: Blood: Monocytes %
[14] = subchronic, duration: 13 weeks, oral, diet, M, Crl:CD(SD) BR, Blood: Calcium (CA), Blood + Blood: Globulin (G), Blood + Brain: Brain Weight, Relative + Kidney: Kidney Weight, Relative + Liver: …
[15] = subchronic, duration: 13 weeks, oral, diet, M, Crl:CD(SD) BR, Blood: Glucose (GLU), Blood + Blood: Hematocrit (HCT) + Kidney: Kidney Weight, Absolute + Kidney: Kidney Weight, Relative to Brain + Kidney…
[16] = subchronic, duration: 13 weeks, oral, diet, M, Sprague-Dawley, Cardiovascular: Heart: Heart, Degeneration/Necrosis + Endocrine: Adrenal: Adrenal Gland Weight, Absolute + Endocrine: Thyroid/Parathyroid: …
[17] = subchronic, duration: 13 weeks, oral, diet, M, Sprague-Dawley, Endocrine: Adrenal: Adrenal Gland Weight, Relative + Endocrine: Adrenal: Adrenal Gland Weight, Relative to Brain + Endocrine: Adrenal: …
[18] = subchronic, duration: 13 weeks, oral, diet, M, Sprague-Dawley, Immune: Blood: Basophils

O=S(=O)(O)CCC(F)(F)C(F)(F)C(F)(F)C(F)(F)C(F)(F)C(F)(F)F [6:2 Fluorotelomer sulfonic acid]
15 mg/kg-day: LEL [1] | NEL [2] | NOAEL [3] | NOAEL [4] | NEL [5]
5 mg/kg-day: NEL [1] | LEL (subchronic, duration: 90 days, oral, gavage, M, Wistar, Kidney: Kidney Weight, Absolute + Kidney: Kidney Weight, Relative + Liver: Albumin (A), Blood + Whole Body: Total Protein (TP), Blood)
45 mg/kg-day: NEL (chronic, duration: 123 days, oral, gavage, F, Wistar, Blood: Albumin/Globulin (A/G) Ratio + Blood: Basophils + Blood: Calcium (CA), Blood + Blood: Chloride (CL), Blood + Blood: Cholesterol (CHOL…) | LEL [2] | NOAEL (developmental, duration: 34 days, parental, M/F, Crl:WI (Han), generation: F1, F1: Developmental: Nipples: Nipple Retention + F1: Developmental: Thyroid: Thyroid Gland Weight, Absolute + F1: Developmental: Thyroid: …) | NEL (developmental, duration: 34 days, parental, M/F, Wistar, generation: F1, F1: Nipples: Nipple Retention + F1: Thyroid: Thyroid Gland Weight, Absolute + F1: Thyroid: Thyroid Gland Weight, Relative + F1: Thyroid: …) | LOAEL [3] | NOAEL (reproduction developmental, duration: 90 days, oral, gavage, M, Crl:WI (Han), generation: P0, P0: Reproductive: Whole Body: Days of Cohabitation + P0: Reproductive: Whole Body: Fertility Index + P0: Reproductive: Whole Body: Percent …) | NEL (reproduction developmental, duration: 90 days, oral, gavage, M, Wistar, Whole Body: Days of Cohabitation + Whole Body: Fertility Index + Whole Body: Percent Mating) | NOAEL (reproduction developmental, duration: 123 days, oral, gavage, F, Crl:WI (Han), generation: P0, P0: Developmental: Uterus: Abortions + P0: Developmental: Uterus: Litter Loss + P0: Reproductive: Vagina: Uterus (With Cervix) Weight, …) | NOAEL (reproduction developmental, duration: 123 days, oral, gavage, F, Crl:WI (Han), generation: P0, P0: Developmental: Uterus: Post-Implantation Loss + P0: Developmental: Uterus: Pre-Implantation Loss + P0: Reproductive: Ovary: Ovary …) | LOAEL [4] | NEL (reproduction developmental, duration: 123 days, oral, gavage, F, Wistar, Ovary: Ovary Histopathology + Ovary: Ovary Weight, Absolute + Uterus: Estrous Cycle, Length + Uterus: Post-Implantation Loss + Uterus: Pre-…) | NEL (reproduction developmental, duration: 123 days, oral, gavage, F, Wistar, generation: P0, P0: Uterus: Abortions + P0: Uterus: Resorptions, Mean/Litter + P0: Vagina: Uterus (With Cervix) Weight, Absolute + P0: Vagina: Vagina …) | NEL (subchronic, duration: 90 days, oral, gavage, M, Wistar, Blood: Albumin/Globulin (A/G) Ratio + Blood: Basophils + Blood: Calcium (CA), Blood + Blood: Chloride (CL), Blood + Blood: Cholesterol (CHOL…) | LEL [5]

CC(C)(c1ccc(OP(=O)(Oc2ccccc2)Oc2ccccc2)cc1)c1ccc(OP(=O)(Oc2ccccc2)Oc2ccccc2)cc1 [2,2-Bis[4-[bis(phenoxy)phosphoryloxy]phenyl]propane]
100 mg/kg-day: NOEL (reproduction developmental, oral, gavage, F, Crl:CD(SD), generation: P0, P0: body weight gain + P0: ovary: ovary weight + P0: toxicity) | NOEL [6] | NOEL [7] | NOEL [8] | NOEL [9]
2000 mg/kg-day: NOEL (acute, duration: 14 days, oral, gavage, F, Crl:CD(SD), body weight gain + toxicity)
1860 mg/kg-day: NOEL (short-term, duration: 28 days, oral, diet, M, Sprague-Dawley, toxicity)
200 mg/kg-day: LOEL [6] | LOEL [7] | LOEL [8] | LOEL [9]
1000 mg/kg-day: NOEL (developmental, oral, Sprague-Dawley, generation: F1, F1: embryotoxicity) | NOEL (developmental, oral, gavage, Crl:CD(SD), generation: F1, F1: embryotoxicity) | NOEL (reproduction developmental, oral, F, Sprague-Dawley, generation: P0, P0: maternal toxicity) | NOEL (reproduction developmental, oral, gavage, Crl:CD(SD), generation: F1, F1: fetotoxicity) | NOEL (reproduction developmental, oral, gavage, Crl:CD(SD), generation: F1, F1: toxicity) | NOEL (reproduction developmental, oral, gavage, F, Crl:CD(SD), generation: P0, P0: body weight + P0: maternal toxicity) | NOEL (reproduction developmental, oral, gavage, F, Crl:CD(SD), generation: P0, P0: body weight gain + P0: toxicity) | NOEL (reproduction developmental, oral, gavage, F, Crl:CD(SD), generation: P0, P0: body weight gain + P0: uterus: Gravid uterus weight) | NOEL (reproduction developmental, oral, gavage, F, Crl:CD(SD), generation: P0, P0: toxicity) | NOEL (reproduction developmental, oral, gavage, F, Wistar, generation: F1, F1: toxicity) | NOEL (reproduction developmental, oral, gavage, F, Wistar, generation: P0, P0: maternal toxicity) | NOEL (reproduction developmental, oral, gavage, F, Wistar, generation: P0, P0: toxicity) | NOEL (reproduction developmental, oral, gavage, M/F, Crl:CD(SD), generation: F1, F1: body weight + F1: toxicity) | NOEL (reproduction developmental, oral, gavage, M, Crl:CD(SD), generation: P0, P0: body weight gain + P0: kidney: kidney: absolute weight + P0: spleen: spleen weight + P0: toxicity) | NOEL (reproduction developmental, oral, gavage, M, Wistar, generation: F1, F1: toxicity) | NOEL (reproduction developmental, oral, gavage, M, Wistar, generation: P0, P0: toxicity) | NOEL (reproduction developmental, oral, gavage, Wistar, generation: F1, F1: developmental toxicity) | NOEL (short-term, duration: 28 days, oral, gavage, F, Sprague-Dawley, body weight + toxicity) | NOEL (short-term, duration: 28 days, oral, gavage, F, Sprague-Dawley, liver: absolute liver weight + ovary: ovary weight + toxicity) | NOEL (short-term, duration: 28 days, oral, gavage, F, Sprague-Dawley, toxicity) | NOEL (short-term, duration: 28 days, oral, gavage, M, Sprague-Dawley, body weight + toxicity) | NOEL (short-term, duration: 28 days, oral, gavage, M, Sprague-Dawley, toxicity) | NOEL (short-term, oral, gavage, F, Sprague-Dawley, toxicity) | NOEL (short-term, oral, gavage, M, Sprague-Dawley, toxicity) | NOEL (subchronic, duration: 90 days, oral, gavage, F, Crj:CD, body weight + toxicity) | NOEL (subchronic, duration: 90 days, oral, gavage, F, Sprague-Dawley, body weight + toxicity) | NOEL (subchronic, duration: 90 days, oral, gavage, M, Crj:CD, body weight + toxicity) | NOEL (subchronic, duration: 90 days, oral, gavage, M, Sprague-Dawley, body weight + toxicity) | NOEL (subchronic, oral, gavage, F, Sprague-Dawley, toxicity) | NOEL (subchronic, oral, gavage, M, Sprague-Dawley, toxicity)
500 mg/kg-day: NOEL (reproduction developmental, oral, gavage, F, Crl:CD(SD), generation: P0, P0: body weight gain + P0: maternal toxicity + P0: uterus: gravid uterine weight)

CN(CCO)S(=O)(=O)C(F)(F)C(F)(F)C(F)(F)C(F)(F)C(F)(F)C(F)(F)C(F)(F)C(F)(F)F [N-Methyl-N-(2-hydroxyethyl)perfluorooctanesulfonamide]
0.203 mg/kg-day: NOAEL (subchronic, duration: 13 weeks, oral, diet, F, Sprague-Dawley, Cardiovascular: Aorta: Aorta Histopathology + Cardiovascular: Heart: Heart, Degeneration/Necrosis + Endocrine: Adrenal: Adrenal Cortex …) | LOAEL (subchronic, duration: 13 weeks, oral, diet, F, Sprague-Dawley, General Toxicity: Whole Body: Body Weight Change + General Toxicity: Whole Body: Body Weight, Absolute + Hematologic: Blood: Inorganic …) | LOAEL (subchronic, duration: 13 weeks, oral, diet, M, Sprague-Dawley, Cardiovascular: Aorta: Aorta Histopathology + Cardiovascular: Heart: Heart, Degeneration/Necrosis + Endocrine: Adrenal: Adrenal Cortex …) | NOAEL [17] | LOAEL (subchronic, duration: 13 weeks, oral, diet, M, Sprague-Dawley, Hematologic: Blood: Hematocrit (HCT) + Hematologic: Blood: Mean Corpuscular Hemoglobin Concentration (MCHC) + Hepatic: Liver: Aspartate …)
6.84 mg/kg-day and 9.6 mg/kg-day: NEL (subchronic, duration: 13 weeks, oral, diet, M, Crl:CD(SD) BR, Adrenal: Adrenal Cortex Histopathology + Adrenal: Adrenal Gland Weight, Absolute + Adrenal: Adrenal Gland Weight, Relative + Adrenal: …) | LEL [15]
9.6 mg/kg-day and 7.7 mg/kg-day: NEL (subchronic, duration: 13 weeks, oral, diet, F, Crl:CD(SD) BR, Adrenal: Adrenal Cortex Histopathology + Adrenal: Adrenal Gland Weight, Absolute + Adrenal: Adrenal Gland Weight, Relative + Adrenal: …) | LEL [10]
2.88 mg/kg-day and 2.59 mg/kg-day: NEL [10] | LEL [11]
2.04 mg/kg-day and 2.88 mg/kg-day: LEL [14] | NEL [15]
6.84 mg/kg-day: LOAEL [12] | NOAEL (subchronic, duration: 13 weeks, oral, diet, F, Sprague-Dawley, Endocrine: Adrenal: Adrenal Medulla Histopathology + Endocrine: Thyroid/Parathyroid: Thyroid/Parathyroid Gland Weight, Relative to Brain + …) | NOAEL (subchronic, duration: 13 weeks, oral, diet, M, Sprague-Dawley, Cardiovascular: Aorta: Aorta Histopathology + Endocrine: Adrenal: Adrenal Cortex Histopathology + Endocrine: Pituitary: Pituitary Gland …) | LOAEL [16]
7.8 mg/kg-day and 7.27 mg/kg-day: NEL (chronic, duration: 14 weeks, oral, diet, M/F, Crl:CD(SD) BR, Eye: Ophthalmology, Unspecified + Whole Body: Clinical Observations)
19.2 mg/kg-day: LOAEL [13] | LOAEL [18]
1.92 mg/kg-day: NOAEL [13] | NOAEL [18]
0.288 mg/kg-day and 0.24 mg/kg-day: NEL [11] | LEL (subchronic, duration: 13 weeks, oral, diet, F, Crl:CD(SD) BR, Brain: Brain Weight, Relative + Whole Body: Body Weight Change)
2.04 mg/kg-day: NOAEL [12] | NOAEL [16] | LOAEL [17]
0.203 mg/kg-day and 0.288 mg/kg-day: NEL [14] | LEL (subchronic, duration: 13 weeks, oral, diet, M, Crl:CD(SD) BR, Whole Body: Body Weight Change)
